Measurements reported in PubChem BioAssay (NCI).
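Five compound concentrations were applied to cells in 96-well plates for 48 hours; endpoints were derived by simple linear interpolation of the resulting dose-response curve. Here, GI50 denotes the concentration required for 50% inhibition of growth. Definition used: TGI = concentration required for complete inhibition of growth.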

What was measured:
Assay in all cases: NCI anticancer screen, dose series, 48 h
[1] = test system: COLO 205 colon
[2] = test system: SN12C renal
[3] = test system: HOP-62 NSCLC
[4] = test system: SW-620 colon
[5] = test system: M14 melanoma
[6] = test system: UACC-62 melanoma
[7] = test system: HS 578T breast
[8] = test system: U251 CNS
[9] = test system: SF-268 CNS
[10] = test system: NCI-H226 lung

Structure (SMILES)	TGI [1] [µM]	TGI [2] [µM]	TGI [3] [µM]	TGI [4] [µM]	TGI [5] [µM]	TGI [6] [µM]	TGI [7] [µM]	TGI [8] [µM]	TGI [9] [µM]	TGI [10] [µM]	GI50 [1] [µM]	GI50 [2] [µM]	GI50 [3] [µM]	GI50 [4] [µM]	GI50 [5] [µM]	GI50 [6] [µM]	GI50 [7] [µM]	GI50 [8] [µM]	GI50 [9] [µM]
COc1ccc(NCc2c(O)ccc3ccccc23)cc1	94.3	> 100	> 100	49.6	47.6	> 100	> 100	> 100	40.7										
N#CNc1nc(C(=O)Nc2ccc(Cl)cc2)cc(-c2ccccc2)n1		> 100	> 100	> 100	> 100	> 100		> 100	> 100	> 100									
CN(C)CCC(=O)NCc1c2nc3ccccc3nc2n2ccccc12	> 100	> 100	> 100	> 100	69.5	> 100	> 100	> 100	> 100		73.3	68	24	58.7	26.3	> 100	> 100	> 100	41.5
CC(=O)OC1C/C(C)=C/[C@H](O)CC(C)/C=C/[C@@]2(C)CCC(C(C)(C)O)C12 (some centres not stated)	> 100	> 100	> 100	> 100	> 100	> 100		> 100	> 100	> 100									
O=C(O)C1=C(Cl)c2ccccc2S1(=O)=O	> 100	> 100	> 100	> 100	> 100	> 100			> 100										
Cc1cccc(NC(=O)Cc2nc3ccccc3s2)c1C	> 100	> 100	> 100	> 100	> 100	> 100			> 100	> 100									
C=C(CN(CCN1CCOCC1)CC(=C)c1ccc(C(=O)Nc2ccccc2N)cc1)c1ccc(C(=O)Nc2ccccc2N)cc1	20.2	21.2	> 50	38.5	> 50	10.6	42.8	12.4	25		8.21	7.43	9.94	8.71	15.8	2.48	5.55	5.78	8.17
CN(/C(=N\O)c1ccccc1)c1ccccc1	> 100	> 100	58.8	> 100	57.5			37.6	97	60									
O=C(Nc1cc([N+](=O)[O-])cc([N+](=O)[O-])c1)OC1C2CCC1C1OC1C2 (configuration not stated)	> 50		> 50	> 50	> 50	> 50		> 50	> 50										
CC(C)[C@H](O)C(=O)N[C@H]1Cc2ccc3c(c2)[C@]24C5=C(N=C(O5)[C@H](C(C)C)NC1=O)c1nc(Cl)c(o1)-c1c(Cl)[nH]c5cccc(c15)-c1cccc2c1N[C@H]4O3			> 10	> 10	> 10		> 10		7.32	0.0273				0.0017	0.0012			< 0.001	< 0.001
